Test results taken from PubChem BioAssay AID1963861 (Molecular Pharmacology Branch, DTP, NCI, 2024).

System: 885724-159-R-J1-PDC KRAS PDC multicell spheroid viability
Test: Anticancer human tumor 885724-159-R-J1-PDC patient-derived pancreatic adenocarcinoma cell line growth inhibition [KRAS2]
Conditions: for viability, T/C: stronger effect = lower value
In short: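 KRAS-mutant tumor cells were grown as spheroids with HUVEC endothelial cells and human MSCs as stroma. Targeted agents were tested alone and with KRAS pathway inhibitors. Doses started at or near clinical Cmax, or 10 microM, descending half-log.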

[1] = curve of first compound, second compound 0.1 µM
[2] = curve of first compound, second compound 0.316 µM
[3] = curve of first compound, second compound 1 µM
[4] = curve of first compound, second compound 3.16 µM
[5] = curve of first compound, second compound 10 µM
[6] = second compound 0.1 µM, first compound 0.01 µM
[7] = second compound 0.1 µM, first compound 0.0316 µM
[8] = second compound 0.1 µM, first compound 0.1 µM
[9] = second compound 0.1 µM, first compound 0.316 µM
[10] = second compound 0.1 µM, first compound 1 µM
[11] = second compound 0.1 µM, first compound 3.16 µM
[12] = second compound 0.316 µM, first compound 0.01 µM
[13] = second compound 0.316 µM, first compound 0.0316 µM
[14] = second compound 0.316 µM, first compound 0.1 µM
[15] = second compound 0.316 µM, first compound 0.316 µM
[16] = second compound 0.316 µM, first compound 1 µM
[17] = second compound 0.316 µM, first compound 3.16 µM
[18] = second compound 1 µM, first compound 0.01 µM
[19] = second compound 1 µM, first compound 0.0316 µM
[20] = second compound 1 µM, first compound 0.1 µM
[21] = second compound 1 µM, first compound 0.316 µM
[22] = second compound 1 µM, first compound 1 µM
[23] = second compound 1 µM, first compound 3.16 µM
[24] = second compound 3.16 µM, first compound 0.01 µM
[25] = second compound 3.16 µM, first compound 0.0316 µM
[26] = second compound 3.16 µM, first compound 0.1 µM
[27] = second compound 3.16 µM, first compound 0.316 µM
[28] = second compound 3.16 µM, first compound 1 µM
[29] = second compound 3.16 µM, first compound 3.16 µM
[30] = second compound 10 µM, first compound 0.01 µM
[31] = second compound 10 µM, first compound 0.0316 µM
[32] = second compound 10 µM, first compound 0.1 µM
[33] = second compound 10 µM, first compound 0.316 µM
[34] = second compound 10 µM, first compound 1 µM
[35] = second compound 10 µM, first compound 3.16 µM
[36] = second compound 0.1 µM, first compound 10 µM
[37] = second compound 0.316 µM, first compound 10 µM
[38] = second compound 1 µM, first compound 10 µM
[39] = second compound 3.16 µM, first compound 10 µM
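Note: spheroids exposed to agents for 7 days before readout.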

Structure (SMILES): CC(=O)OC12COC1CC(O)C1(C)C(=O)C(O)C3=C(C)C(OC(=O)C(O)C(NC(=O)OC(C)(C)C)c4ccccc4)CC(O)(C(OC(=O)c4ccccc4)C21)C3(C)C (stereo not drawn) + CNCc1ccccc1-c1csc(C(C)Nc2nc(C)nc3cc(OC)c(OC)cc23)c1
- IC50 [1]: > 3160 nM
- IC50 [2]: > 3160 nM
- IC50 [3]: > 3160 nM
- IC50 [4]: < 10 nM
- IC50 [5]: < 10 nM
- viability, T/C [6]: 81.2%
- viability, T/C [7]: 93.5%
- viability, T/C [8]: 97%
- viability, T/C [9]: 96.9%
- viability, T/C [10]: 105%
- viability, T/C [11]: 104%
- viability, T/C [12]: 85.6%
- viability, T/C [13]: 92.2%
- viability, T/C [14]: 96.2%
- viability, T/C [15]: 98.9%
- viability, T/C [16]: 101%
- viability, T/C [17]: 100%
- viability, T/C [18]: 84.6%
- viability, T/C [19]: 97.9%
- viability, T/C [20]: 104%
- viability, T/C [21]: 101%
- viability, T/C [22]: 103%
- viability, T/C [23]: 105%
- viability, T/C [24]: 0.36%
- viability, T/C [25]: 93.9%
- viability, T/C [26]: 1.4%
- viability, T/C [27]: 0.54%
- viability, T/C [28]: 13%
- viability, T/C [29]: 110%
- viability, T/C [30]: 0.32%
- viability, T/C [31]: 0.17%
- viability, T/C [32]: 0.21%
- viability, T/C [33]: 0.2%
- viability, T/C [34]: 0.22%
- viability, T/C [35]: 0.28%

Structure (SMILES): COC(=O)c1ccc2c(C(=Nc3ccc(N(C)C(=O)CN4CCN(C)CC4)cc3)c3ccccc3)c(O)[nH]c2c1
- viability, T/C (compound 0.0316 µM): 99.8% [middle of 5 runs]
- viability, T/C (compound 0.1 µM): 103% [middle of 5 runs]
- viability, T/C (compound 0.316 µM): 98.2% [middle of 5 runs]
- viability, T/C (compound 1 µM): 103% [middle of 5 runs]
- viability, T/C (compound 3.16 µM): 29.4% [middle of 5 runs]
- viability, T/C (compound 10 µM): 0.61% [middle of 5 runs]
- IC50 (curve of compound): 2.26 µM [middle of 5 runs]

Structure (SMILES): CC1COCCN1c1cc(-c2ccnn2C)c2ccnc(-c3ccn[nH]3)c2n1 (stereo not drawn) + C=CC(=O)N1CCN(c2nc(=O)n(-c3c(C)ccnc3C(C)C)c3nc(-c4c(O)cccc4F)c(F)cc23)C(C)C1
- IC50 [1]: > 3160 nM
- IC50 [2]: 2780 nM
- IC50 [3]: 2410 nM
- IC50 [4]: > 3160 nM
- IC50 [5]: 222 nM
- viability, T/C [6]: 111%
- viability, T/C [7]: 92.4%
- viability, T/C [8]: 69.2%
- viability, T/C [9]: 56.2%
- viability, T/C [10]: 49.2%
- viability, T/C [11]: 55.2%
- viability, T/C [12]: 104%
- viability, T/C [13]: 84.6%
- viability, T/C [14]: 68.2%
- viability, T/C [15]: 58.3%
- viability, T/C [16]: 49%
- viability, T/C [17]: 51.5%
- viability, T/C [18]: 106%
- viability, T/C [19]: 83.8%
- viability, T/C [20]: 66.9%
- viability, T/C [21]: 60.2%
- viability, T/C [22]: 47.8%
- viability, T/C [23]: 51.4%
- viability, T/C [24]: 93.7%
- viability, T/C [25]: 92.1%
- viability, T/C [26]: 66.2%
- viability, T/C [27]: 58.9%
- viability, T/C [28]: 49.4%
- viability, T/C [29]: 54.1%
- viability, T/C [30]: 71.7%
- viability, T/C [31]: 65.7%
- viability, T/C [32]: 55.9%
- viability, T/C [33]: 46.7%
- viability, T/C [34]: 45.6%
- viability, T/C [35]: 42.7%

Structure (SMILES): CC(C)n1nc(-c2ccc3oc(N)nc3c2)c2c(N)ncnc21 + CC1OCC2(CCN(c3cnc(Sc4ccnc(N)c4Cl)c(N)n3)CC2)C1N
- IC50 [1]: 63.3 nM
- IC50 [2]: 49.8 nM
- IC50 [3]: 33 nM
- IC50 [4]: 12 nM
- IC50 [5]: 13.1 nM
- viability, T/C (second compound 0.1 µM, first compound 0.000316 µM): 90.5%
- viability, T/C (second compound 0.1 µM, first compound 0.001 µM): 79%
- viability, T/C (second compound 0.1 µM, first compound 0.00316 µM): 69.8%
- viability, T/C [6]: 64.8%
- viability, T/C [7]: 53.5%
- viability, T/C [8]: 46.8%
- viability, T/C (second compound 0.316 µM, first compound 0.000316 µM): 86.5%
- viability, T/C (second compound 0.316 µM, first compound 0.001 µM): 75.7%
- viability, T/C (second compound 0.316 µM, first compound 0.00316 µM): 65%
- viability, T/C [12]: 58.6%
- viability, T/C [13]: 55.7%
- viability, T/C [14]: 44.8%
- viability, T/C (second compound 1 µM, first compound 0.000316 µM): 76.2%
- viability, T/C (second compound 1 µM, first compound 0.001 µM): 69.1%
- viability, T/C (second compound 1 µM, first compound 0.00316 µM): 63.2%
- viability, T/C [18]: 53.6%
- viability, T/C [19]: 53.4%
- viability, T/C [20]: 43.5%
- viability, T/C (second compound 3.16 µM, first compound 0.000316 µM): 77.7%
- viability, T/C (second compound 3.16 µM, first compound 0.001 µM): 79.3%
- viability, T/C (second compound 3.16 µM, first compound 0.00316 µM): 61.5%
- viability, T/C [24]: 53.3%
- viability, T/C [25]: 45.5%
- viability, T/C [26]: 47.3%
- viability, T/C (second compound 10 µM, first compound 0.000316 µM): 72.6%
- viability, T/C (second compound 10 µM, first compound 0.001 µM): 70%
- viability, T/C (second compound 10 µM, first compound 0.00316 µM): 63.2%
- viability, T/C [30]: 51.5%
- viability, T/C [31]: 44.1%
- viability, T/C [32]: 39.6%

Structure (SMILES): CN(C)C/C=C/C(=O)Nc1cc2c(Nc3ccc(F)c(Cl)c3)ncnc2cc1O[C@H]1CCOC1
- viability, T/C (compound 0.000316 µM): 107% [middle of 5 runs]
- viability, T/C (compound 0.001 µM): 104% [middle of 5 runs]
- viability, T/C (compound 0.01 µM): 95.3% [middle of 5 runs]
- viability, T/C (compound 0.0316 µM): 81.5% [middle of 5 runs]
- viability, T/C (compound 0.1 µM): 77.5% [middle of 5 runs]
- IC50 (curve of compound): > 100 nM

Structure (SMILES): CCNC(=O)CC1N=C(c2ccc(Cl)cc2)c2cc(OC)ccc2-n2c(C)nnc21 (stereo not drawn) + C=CC(=O)N1CCN(c2nc(OCC3CCCN3C)nc3c2CCN(c2cccc4cccc(C)c24)C3)CC1CC#N
- IC50 (curve of first compound, second compound 0.0316 µM): 3550 nM
- IC50 [1]: 1180 nM
- IC50 [2]: 835 nM
- IC50 [3]: 855 nM
- IC50 [4]: < 31.6 nM
- viability, T/C (second compound 0.0316 µM, first compound 0.0316 µM): 110%
- viability, T/C (second compound 0.0316 µM, first compound 0.1 µM): 98.9%
- viability, T/C (second compound 0.0316 µM, first compound 0.316 µM): 74.7%
- viability, T/C (second compound 0.0316 µM, first compound 1 µM): 63.9%
- viability, T/C (second compound 0.0316 µM, first compound 3.16 µM): 49.9%
- viability, T/C (second compound 0.0316 µM, first compound 10 µM): 44.8%
- viability, T/C [7]: 102%
- viability, T/C [8]: 89.1%
- viability, T/C [9]: 64.8%
- viability, T/C [10]: 51%
- viability, T/C [11]: 46.3%
- viability, T/C [36]: 45.7%
- viability, T/C [13]: 118%
- viability, T/C [14]: 105%
- viability, T/C [15]: 63.5%
- viability, T/C [16]: 50.4%
- viability, T/C [17]: 45%
- viability, T/C [37]: 42.4%
- viability, T/C [19]: 87.2%
- viability, T/C [20]: 82.7%
- viability, T/C [21]: 66.5%
- viability, T/C [22]: 46.5%
- viability, T/C [23]: 45%
- viability, T/C [38]: 39.5%
- viability, T/C [25]: 49%
- viability, T/C [26]: 49.4%
- viability, T/C [27]: 39.2%
- viability, T/C [28]: 20.6%
- viability, T/C [29]: 29.3%
- viability, T/C [39]: 27.9%

Structure (SMILES): COc1cc2nccc(Oc3ccc(NC(=O)C4(C(=O)Nc5ccc(F)cc5)CC4)cc3)c2cc1OC + COc1cc2nc(C)nc(NC(C)c3cc(N)cc(C(F)(F)F)c3)c2cc1OC1CCOC1
- IC50 [1]: > 10000 nM
- IC50 [2]: > 10000 nM
- IC50 [3]: 4630 nM
- IC50 [4]: 1720 nM
- IC50 [5]: < 31.6 nM
- viability, T/C [7]: 99.6%
- viability, T/C [8]: 102%
- viability, T/C [9]: 104%
- viability, T/C [10]: 91%
- viability, T/C [11]: 65.2%
- viability, T/C [36]: 60%
- viability, T/C [13]: 96.6%
- viability, T/C [14]: 93.5%
- viability, T/C [15]: 93.1%
- viability, T/C [16]: 80.9%
- viability, T/C [17]: 65.8%
- viability, T/C [37]: 54.8%
- viability, T/C [19]: 97.4%
- viability, T/C [20]: 93.4%
- viability, T/C [21]: 76.2%
- viability, T/C [22]: 73.9%
- viability, T/C [23]: 48.7%
- viability, T/C [38]: 44.6%
- viability, T/C [25]: 88.8%
- viability, T/C [26]: 97.9%
- viability, T/C [27]: 89.5%
- viability, T/C [28]: 67.6%
- viability, T/C [29]: 28.7%
- viability, T/C [39]: 31.8%
- viability, T/C [31]: 55%
- viability, T/C [32]: 17.2%
- viability, T/C [33]: 21.5%
- viability, T/C [34]: 28.1%
- viability, T/C [35]: 0.71%
- viability, T/C (second compound 10 µM, first compound 10 µM): 0.34%
